From PubChem BioAssay AID318 (DTP/NCI, 2004)
Several values for one entry are separate records, joined by “and”; a condition that tells them apart may be missing. Equal values may be shown once. Inconclusive results and toxic doses are left out.

System: BDF1 mice, P815 leukemia ip, survival T/C
Test: NCI In Vivo Anticancer Drug Screen. Data for tumor model P815 Mast Cell Leukemia (Ascitic) (intraperitoneal) in B6D2F1 (BDF1) mice
Settings: higher = longer survival
Description: The antitumor activity of compounds was measured in mice bearing transplantable tumors. Survival or tumor size were measured and the results are expressed as the measurement made in the treated group (T) divided by the measurement made in the vehicle treated control group (C). The tumor model used in this assay is P815 Mast Cell Leukemia (Ascitic) (intraperitoneal) in B6D2F1 (BDF1) mice

[1] = endpoint: survival time, mean or median, dose: 10.0 mg/kg/injection, schedule: Q01DX010 (ip), vehicle: saline
[2] = endpoint: survival time, mean or median, dose: 2.5 mg/kg/injection, schedule: Q01DX010 (ip), vehicle: saline
[3] = endpoint: survival time, mean or median, dose: 5.0 mg/kg/injection, schedule: Q01DX010 (ip), vehicle: saline

For CN(C)c1ccc(/C=C\c2ccnc3ccccc23)cc1, which T/C (endpoint: survival time, mean or median, dose: 1.5 mg/kg/injection, schedule: Q01DX010 (ip), vehicle: saline) is on record?
The T/C was 90 % of control.

What about the T/C (endpoint: survival time, mean or median, dose: 3.0 mg/kg/injection, schedule: Q01DX010 (ip), vehicle: saline) of the same compound?
Its T/C is 90 % of control.

What about the T/C (endpoint: survival time, mean or median, dose: 6.0 mg/kg/injection, schedule: Q01DX010 (ip), vehicle: saline) of the same compound?
Its T/C is 90 % of control.

And the T/C (endpoint: survival time, mean or median, dose: 12.0 mg/kg/injection, schedule: Q01DX010 (ip), vehicle: saline)?
The T/C was 90 % of control.

How did the T/C (endpoint: survival time, mean or median, dose: 20.0 mg/kg/injection, schedule: Q01DX010 (ip), vehicle: saline) turn out when OCC1OC(n2cnc3c(=S)nc[nH]c32)C(O)C1O (stereo not given) was run?
Its T/C is 104 % of control and 116 % of control.

What about the T/C (endpoint: survival time, mean or median, dose: 40.0 mg/kg/injection, schedule: Q01DX010 (ip), vehicle: saline) of the same compound?
Its T/C is 91 % of control and 108 % of control.

What about the T/C (endpoint: survival time, mean or median, dose: 80.0 mg/kg/injection, schedule: Q01DX010 (ip), vehicle: saline) of the same compound?
Its T/C is 95 % of control and 116 % of control.

With NOCc1cscn1 as the compound, how does the T/C (endpoint: median survival time, dose: 25.0 mg/kg/injection, schedule: Q01DX010 (ip), vehicle: saline sonified) read?
Its T/C is 87 % of control.

And the T/C (endpoint: median survival time, dose: 50.0 mg/kg/injection, schedule: Q01DX010 (ip), vehicle: saline sonified)?
The T/C was 100 % of control.

Which results are given for N[C@@H](Cc1ccc(N(CCCl)CCCl)cc1)C(=O)O?
T/C (endpoint: survival time, mean or median, dose: 1.0 mg/kg/injection, schedule: Q01DX015 (ip), vehicle: carboxymethylcellulose (CMC)): 231 % of control; T/C (endpoint: survival time, mean or median, dose: 2.0 mg/kg/injection, schedule: Q01DX015 (ip), vehicle: carboxymethylcellulose (CMC)): 257 % of control; T/C (endpoint: survival time, mean or median, dose: 4.0 mg/kg/injection, schedule: Q01DX015 (ip), vehicle: carboxymethylcellulose (CMC)): 182 % of control and 195 % of control; T/C (endpoint: survival time, mean or median, dose: 8.0 mg/kg/injection, schedule: Q01DX015 (ip), vehicle: carboxymethylcellulose (CMC)): 103 % of control

How did the T/C (endpoint: survival time, mean or median, dose: 3.13 mg/kg/injection, schedule: Q01DX010 (ip), vehicle: saline) turn out when [I][Hg][CH2]C1COC([CH2][Hg][I])CO1 (stereo not given) was run?
Its T/C is 90 % of control.

And the T/C (endpoint: survival time, mean or median, dose: 6.25 mg/kg/injection, schedule: Q01DX010 (ip), vehicle: saline)?
The T/C was 90 % of control.

And the T/C (endpoint: survival time, mean or median, dose: 12.5 mg/kg/injection, schedule: Q01DX010 (ip), vehicle: saline)?
The T/C was 95 % of control.

What about the T/C (endpoint: survival time, mean or median, dose: 25.0 mg/kg/injection, schedule: Q01DX010 (ip), vehicle: saline) of the same compound?
The T/C was 90 % of control.

Which T/C (endpoint: survival time, mean or median, dose: 8.0 mg/kg/injection, schedule: Q01DX010 (ip), vehicle: saline) does the source give for O=C(Nc1ccc(C2=NCCN2)cc1)c1cccc(C(=O)Nc2ccc(C3=NCCN3)cc2)c1 here?
The T/C was 118 % of control.

What about the T/C (endpoint: survival time, mean or median, dose: 32.0 mg/kg/injection, schedule: Q01DX010 (ip), vehicle: saline) of the same compound?
The T/C was 200 % of control and 160 % of control.

And the T/C (endpoint: survival time, mean or median, dose: 64.0 mg/kg/injection, schedule: Q01DX010 (ip), vehicle: saline)?
The T/C was 181 % of control and 233 % of control.

For O=C(O)c1[nH]c(=O)[nH]c(=O)c1F, which T/C (endpoint: survival time, mean or median, dose: 13.0 mg/kg/injection, schedule: Q01DX015 (ip), vehicle: carboxymethylcellulose (CMC)) is on record?
The T/C was 86 % of control.

With CC1CN=C(c2ccc(NC(=O)c3ccc(C(=O)Nc4ccc(C5=NCC(C)N5)cc4)cc3)cc2)N1 (stereo not given) as the compound, how does the T/C [1] read?
Its T/C is 165 % of control.

What about the T/C (endpoint: survival time, mean or median, dose: 15.0 mg/kg/injection, schedule: Q01DX010 (ip), vehicle: saline) of the same compound?
The T/C was 156 % of control.

What about the T/C (endpoint: survival time, mean or median, dose: 22.0 mg/kg/injection, schedule: Q01DX010 (ip), vehicle: saline) of the same compound?
The T/C was 182 % of control.

What about the T/C (endpoint: survival time, mean or median, dose: 33.0 mg/kg/injection, schedule: Q01DX010 (ip), vehicle: saline) of the same compound?
Its T/C is 186 % of control.

For CCOC(N)=O, which T/C (endpoint: survival time, mean or median, dose: 125.0 mg/kg/injection, schedule: Q01DX010 (ip), vehicle: saline) is on record?
Its T/C is 100 % of control.

What about the T/C (endpoint: survival time, mean or median, dose: 250.0 mg/kg/injection, schedule: Q01DX010 (ip), vehicle: saline) of the same compound?
The T/C was 100 % of control and 118 % of control.

What about the T/C (endpoint: survival time, mean or median, dose: 500.0 mg/kg/injection, schedule: Q01DX010 (ip), vehicle: saline) of the same compound?
Its T/C is 100 % of control and 104 % of control.

Which results are given for N#[N+]c1cnc([O-])[nH]c1=O?
T/C (endpoint: survival time, mean or median, dose: 1.25 mg/kg/injection, schedule: Q01DX010 (ip), vehicle: saline): 150 % of control; T/C [2]: 205 % of control; T/C [3]: 215 % of control and 150 % of control; T/C [1]: 205 % of control and 161 % of control

For C=CCSc1nc(N)nc2nc[nH]c12, which T/C (endpoint: survival time, mean or median, dose: 15.0 mg/kg/injection, schedule: Q01DX015 (ip), vehicle: other) is on record?
The T/C was 113 % of control.

What about the T/C (endpoint: survival time, mean or median, dose: 16.0 mg/kg/injection, schedule: Q01DX015 (ip), vehicle: other) of the same compound?
The T/C was 109 % of control.

What about the T/C (endpoint: survival time, mean or median, dose: 31.0 mg/kg/injection, schedule: Q01DX015 (ip), vehicle: other) of the same compound?
Its T/C is 96 % of control and 107 % of control.

And the T/C (endpoint: survival time, mean or median, dose: 62.0 mg/kg/injection, schedule: Q01DX015 (ip), vehicle: other)?
The T/C was 106 % of control and 112 % of control.

And the T/C (endpoint: survival time, mean or median, dose: 125.0 mg/kg/injection, schedule: Q01DX015 (ip), vehicle: other)?
Its T/C is 89 % of control and 91 % of control.

Which T/C [2] does the source give for Nc1nc(=S)c2[nH]cnc2[nH]1 here?
The T/C was 95 % of control.

What about the T/C [3] of the same compound?
Its T/C is 122 % of control.

And the T/C [1]?
Its T/C is 90 % of control and 118 % of control.
